From US20060153773A1, “Contrast medium for mri” (priority 2003, published 2006)

How the values were obtained:
[1] = tested on: injured left common carotid artery; assay: In vivo MRI of common carotid arteries in balloon-injured living rat; details: for MRI signal in the injured left common carotid artery (image): 2 ml of 24 mM (about 160 μM/kg) via left femoral vein, T1 weighted spin echo, FIG. 6; for MRI signal intensity of injured common carotid artery versus normal common carotid artery: 2 ml of 24 mM via left femoral vein, time course, own agent stated at ten minutes after administration, FIG. 7
Experimental: This example is to evaluate the imaging capability of the contrast agent of the present invention by means of an in vivo experiment using a living rat. A rat (weighing about 300 g) was anesthetized with pentobarbital, and inserted with a balloon-tip catheter through the left femoral artery [FIG. 5 (a), 1]. The left common carotid artery was scraped by the balloon to injure the endothelia thereof. Then the rat was injected, through the left femoral vein [FIG. 5 (a), 2], with 2 ml (about 160 μM/kg) of physiological aqueous solution of the contrast agent as prepared in Example 1 (24 mM). At predetermined lapses of time, images were taken by MRI (the T1 weighted spin echo method) around the right and left common carotid artery [the cross section along the line N-N in FIG. 5 (a)]. The rat was supplementally anesthetized in order to keep it motionless during the imaging operation. For comparison, an evaluation experiment was also carried out in the same manner with a conventional agent, DTPA-Gd. […] In FIG. 6, by “injured” is designated the left common carotid artery injured by the balloon, corresponding to 4 in FIG. 5 (b), while by “intact” is designated the right common carotid artery, which is normal and corresponds to 5 in FIG. 5 (b). The numeral 3 in FIG. 5 (b) denotes the bronchium.

[2] = Gd content remaining in various organs of the rat (ICP); format: in vivo
Experimental: This was also verified by measuring Gd (gadolinium) content remaining in various organs of the rat, in which the measurement was carried out as follows: The rat was administered with 1 ml heparin and a blood sample was taken from the rat. Then physiological saline solution was circulated throughout the rat, and the various organs were extirpated from the rat. To each organ and the blood sample was added 3 ml nitric acid, followed by standing for one hour. The resultant was added with 25% hydrogen peroxide aqueous solution and then allowed to stand overnight at room temperature. The resultant solution was warmed and added with 6 ml water. The insolubles were removed by filtration, and the filtrate was analyzed by ICP.

[3] = tested on: exfoliated endothelial site (balloon-injured left carotid artery); assay: Ex vivo MRI of extirpated carotid arteries after injection into balloon-injured living rat; format: in vivo; details: 2 ml of 24 mM via right jugular vein, FIG. 3
Experimental: The contrast agent of the present invention was evaluated for imaging capability by means of an ex vivo experiment using a living rat. A balloon-tip catheter was passed through the left femoral artery of the rat to injure the carotid artery with the balloon. Then 2 ml of aqueous saline solution containing 24 mM of the contrast agent (EBDTPA-Gd prepared in Example 1) was injected to the rat through the right jugular vein. After a predetermined period of time (10, 30 or 120 minutes), the right carotid artery and the left carotid artery were extirpated, developed, washed with a physiological saline, and then subjected to evaluation by MRI. The MRI evaluation was carried out by imaging the extirpated carotid artery sections, under the condition of being added with one or two droplets of physiological saline solution, by the T1 weighted spin echo method. In FIG. 3, by “injured” is denoted the exfoliated endothelial site (the left carotid artery), which had been injured by the balloon, while “intact” denotes the normal endothelial site (the right carotid artery). The photographs of the developed vascular samples as presented in FIG. 3 reveal purple coloring with intensities corresponding to the MRI signal intensities described later. The pictures (A) as presented in FIG. 3 below the photographs of the developed vascular samples illustrate the states of the samples prepared for the study by MRI. As illustrated, each carotid artery section was developed on a glass plate and covered with one or two droplets of physiological saline solution, for the MRI study.

[4] = tested on: exfoliated endothelial site of aortic vascular section; assay: In vitro MRI imaging capability on aortic vascular section extirpated from a pig; details: pig aortic section immersed in 10 mM aqueous solution for ten seconds
Experimental: For the contrast agent as synthesized (prepared) in Example 1, evaluation of in vitro imaging capability by MRI was carried out with an aortic vascular section extirpated from a pig, as a specimen.
The aortic vascular section extirpated from a pig was spread in a rectangular shape measuring about 2 cm×3 cm to prepare a vascular section sample. The endothelial surface of the left half of the sample was exfoliated with a scalpel. The sample was then immersed in a 10 mM aqueous solution of the contrast agent for ten seconds. Following thorough washing with physiological saline solution, the sample was subjected to the evaluation by MRI as well as by visual observation.
FIG. 2 (A) is a picture taken with a digital camera, which corresponds to the visual observation. […] FIG. 2 (B) is an MRI image (by the T1 weighted spin echo method).

| SMILES | MRI signal in the injured left common carotid artery (image) [1] | MRI signal intensity of injured common carotid artery versus normal common carotid artery [1] | Gd content remaining in various organs ([2]; rat organs and blood, ICP, FIG. 4) | colour of urine (excretion through the kidney) ([2]; rat, ten minutes after the administration) | difference in MRI signal intensity between exfoliated site and normal site ([3]; after 120 minutes) | difference in MRI signal intensity between exfoliated endothelial site and normal site ([3]; after thirty minutes) | MRI signal intensity of the injured site relative to the normal site ([3]; ten minutes from the injection) | visual observation of the exfoliated endothelial site ([4]; FIG. 2(A)) | MRI signal intensity at the exfoliated endothelial site relative to the normal endothelial site ([4]; T1 weighted spin echo, FIG. 2(C)) |
| --- | --- | --- | --- | --- | --- | --- | --- | --- | --- |
| O=C([O-])CN(CCN(CC(=O)[O-])CC(=O)O)CCN(CC(=O)[O-])CC(=O)O.[Gd+3] [DTPA-Gd, reference compound] | no such signal was observed | no substantial difference | – | – | – | – | – | – | – |
| Cc1cc(-c2ccc(NC(=O)CN(CCN(CCN(CC(=O)O)CC(=O)O)CC(=O)O)CC(=O)O)c(C)c2)ccc1N=Nc1ccc2c(S(=O)(=O)O)cc(S(=O)(=O)O)c(N)c2c1O [contrast agent of the present invention] | clear MRI signal | higher than that for the normal right common carotid artery | substantially no remaining Gd in organs other than the blood and kidney | colored purple | no substantial difference | the difference in the signal intensity therebetween shortened | 1.74 times | colored blue | about ten |
